Consider one compound from PMC6017477, “In Vitro ADME Properties of Two Novel Antimicrobial Peptoid-Based Compounds as Potential Agents against Canine Pyoderma” (Molecules : A Journal of Synthetic Chemistry and Natural …, 2018).

The subject of data set [1] is dog plasma proteins. In words: Plasma protein binding, rapid equilibrium dialysis. The data set is classed as in vitro ADME. Conditions: dog plasma, 4 h incubation. The method, then:
The plasma protein binding properties of candidate drugs can influence their efficacy, safety, and distribution. The fraction of peptoid bound to proteins of plasma collected from dogs was determined using rapid equilibrium dialysis.
Plate inserts comprised two side-by-side chambers separated by a dialysis membrane (8K MWCO). The chambers contained […] plasma or 350 µL dialysis buffer (PBS buffer pH 7.4), respectively. Dogplasma lot was identical to the one used in the plasma stability assay. […] Plates were sealed and incubated at 37 °C for 4 h on a shaker. Each test was run in quadruplicate in dog plasma. Upon completion of the assay, the plasma protein binding was determined by protein precipitation with ACN of both plasma and PBS, and drug levels were quantified via LC-MS/MS as described above. The percentage of bound compounds was determined from peak areas using Equations (3) and (4):% free = (concentration buffer chamber/concentration plasma chamber) × 100%(3) % bound = 100% − % free(4)

The test system of data set [2] is dog plasma proteins. The note with it: stated in the method for the control; no reference given; cited from earlier work.

For the compound `CS(=O)(=O)CC(=O)N1CC2(C1)OCc1cc(C3=NO[C@@](c4cc(Cl)c(F)c(Cl)c4)(C(F)(F)F)C3)ccc12` [Control, sarolaner, reference compound], in data set [1] (37 °C), the “% Unbound (free fraction)” value amounted to 0.27% and the “Bound to plasma proteins” value was 99.7%. The “% Average Recovery” value in data set [1] (n = 4) turned out to be 67.1%. In addition, in data set [2], the “protein bound (known value of the control compound)” value was over 99%.
